#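 Test compounds were applied to cells in 96-well plates for 48 hours at 5 doses. At the GI50, growth is halved. TGI: total growth inhibition.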
# Tests used:
# Test in all cases: DTP human tumour cell line panel, 48 h
# SNB-19 CNS = tested on: SNB-19 CNS
# K-562 leukemia = tested on: K-562 leukemia
# HOP-92 NSCLC = tested on: HOP-92 NSCLC
# HT29 colon = tested on: HT29 colon
# SN12C renal = tested on: SN12C renal
# HCT-116 colon = tested on: HCT-116 colon
# OVCAR-5 ovarian = tested on: OVCAR-5 ovarian
# MDA-MB-435 = tested on: MDA-MB-435
# NCI-H226 lung = tested on: NCI-H226 lung
# MALME-3M melanoma = tested on: MALME-3M melanoma
# OVCAR-8 ovarian = tested on: OVCAR-8 ovarian
# SK-MEL-28 melanoma = tested on: SK-MEL-28 melanoma
# OVCAR-4 ovarian = tested on: OVCAR-4 ovarian
# DU-145 prostate = tested on: DU-145 prostate
# SF-268 CNS = tested on: SF-268 CNS
# RXF 393 renal = tested on: RXF 393 renal
# HL-60(TB) leukemia = tested on: HL-60(TB) leukemia
# SNB-75 CNS = tested on: SNB-75 CNS
# KM12 colon = tested on: KM12 colon
# PC-3 prostate = tested on: PC-3 prostate
# RPMI-8226 leukemia = tested on: RPMI-8226 leukemia
# NCI/ADR-RES ovarian = tested on: NCI/ADR-RES ovarian
# ACHN renal = tested on: ACHN renal
# A498 renal = tested on: A498 renal
# HOP-62 NSCLC = tested on: HOP-62 NSCLC
# BT-549 breast = tested on: BT-549 breast
# HCT-15 colon = tested on: HCT-15 colon
# SW-620 colon = tested on: SW-620 colon
# UACC-62 melanoma = tested on: UACC-62 melanoma
# SK-MEL-2 melanoma = tested on: SK-MEL-2 melanoma
# HCC-2998 colon = tested on: HCC-2998 colon
# MCF7 breast = tested on: MCF7 breast
# IGROV1 ovarian = tested on: IGROV1 ovarian
# 786-0 renal = tested on: 786-0 renal
# CCRF-CEM leukemia = tested on: CCRF-CEM leukemia
# SF-539 CNS = tested on: SF-539 CNS
# T-47D breast = tested on: T-47D breast
# U251 CNS = tested on: U251 CNS
# MOLT-4 leukemia = tested on: MOLT-4 leukemia
# CAKI-1 renal = tested on: CAKI-1 renal
# NCI-H23 lung = tested on: NCI-H23 lung
# NCI-H460 lung = tested on: NCI-H460 lung
# TK-10 renal = tested on: TK-10 renal
# UACC-257 melanoma = tested on: UACC-257 melanoma
# COLO 205 colon = tested on: COLO 205 colon
# SR leukemia = tested on: SR leukemia
# SK-OV-3 ovarian = tested on: SK-OV-3 ovarian
# SF-295 CNS = tested on: SF-295 CNS
# M14 melanoma = tested on: M14 melanoma
# MDA-MB-231 breast = tested on: MDA-MB-231 breast
# NCI-H522 lung = tested on: NCI-H522 lung
# EKVX NSCLC = tested on: EKVX NSCLC
# HS 578T breast = tested on: HS 578T breast
# UO-31 renal = tested on: UO-31 renal
# SK-MEL-5 melanoma = tested on: SK-MEL-5 melanoma
# A549 NSCLC = tested on: A549 NSCLC
smiles,measurement,setting,value
COc1ccc(Cn2cc3c(c2-c2cc(OC)c(OC)c(OC)c2)CCc2c(CN4CCCC4)noc2-3)cc1,GI50,SNB-19 CNS,0.78 µM
same,TGI,SNB-19 CNS,> 100 µM
same,GI50,K-562 leukemia,0.348 µM
same,TGI,K-562 leukemia,16.6 µM
same,GI50,HOP-92 NSCLC,1.35 µM
same,TGI,HOP-92 NSCLC,12 µM
same,GI50,HT29 colon,0.398 µM
same,TGI,HT29 colon,12.6 µM
same,GI50,SN12C renal,4.43 µM
same,TGI,SN12C renal,78 µM
same,GI50,HCT-116 colon,0.466 µM
same,TGI,HCT-116 colon,14.9 µM
same,GI50,OVCAR-5 ovarian,3.2 µM
same,TGI,OVCAR-5 ovarian,> 100 µM
same,GI50,MDA-MB-435,0.239 µM
same,TGI,MDA-MB-435,0.595 µM
same,GI50,NCI-H226 lung,2.07 µM
same,TGI,NCI-H226 lung,30.3 µM
same,GI50,MALME-3M melanoma,0.496 µM
same,TGI,MALME-3M melanoma,21.4 µM
same,GI50,OVCAR-8 ovarian,3.27 µM
same,TGI,OVCAR-8 ovarian,78.9 µM
same,GI50,SK-MEL-28 melanoma,11.5 µM
same,TGI,SK-MEL-28 melanoma,29.6 µM
same,GI50,OVCAR-4 ovarian,21.4 µM
same,TGI,OVCAR-4 ovarian,> 100 µM
same,GI50,DU-145 prostate,4 µM
same,TGI,DU-145 prostate,> 100 µM
same,GI50,SF-268 CNS,3.15 µM
same,TGI,SF-268 CNS,29.8 µM
same,GI50,RXF 393 renal,0.893 µM
same,TGI,RXF 393 renal,7.96 µM
same,GI50,HL-60(TB) leukemia,0.317 µM
same,TGI,HL-60(TB) leukemia,1.28 µM
same,GI50,SNB-75 CNS,0.668 µM
same,TGI,SNB-75 CNS,4.83 µM
same,GI50,KM12 colon,12.6 µM
same,TGI,KM12 colon,81.2 µM
same,GI50,PC-3 prostate,0.636 µM
same,TGI,PC-3 prostate,> 100 µM
same,GI50,RPMI-8226 leukemia,1.27 µM
same,TGI,RPMI-8226 leukemia,9.04 µM
same,GI50,NCI/ADR-RES ovarian,0.55 µM
same,TGI,NCI/ADR-RES ovarian,11.2 µM
same,GI50,ACHN renal,0.634 µM
same,TGI,ACHN renal,36.5 µM
same,GI50,A498 renal,0.78 µM
same,TGI,A498 renal,6.38 µM
same,GI50,HOP-62 NSCLC,1.41 µM
same,TGI,HOP-62 NSCLC,32.6 µM
same,GI50,BT-549 breast,2.47 µM
same,TGI,BT-549 breast,14.3 µM
same,GI50,HCT-15 colon,0.475 µM
same,TGI,HCT-15 colon,12.1 µM
same,GI50,SW-620 colon,0.54 µM
same,TGI,SW-620 colon,80.3 µM
same,GI50,UACC-62 melanoma,0.545 µM
same,TGI,UACC-62 melanoma,22.7 µM
same,GI50,SK-MEL-2 melanoma,13.2 µM
same,TGI,SK-MEL-2 melanoma,41.4 µM
same,GI50,HCC-2998 colon,1.84 µM
same,TGI,HCC-2998 colon,14.6 µM
same,GI50,MCF7 breast,0.325 µM
same,TGI,MCF7 breast,20 µM
same,GI50,IGROV1 ovarian,0.892 µM
same,TGI,IGROV1 ovarian,> 100 µM
same,GI50,786-0 renal,0.997 µM
same,TGI,786-0 renal,21.9 µM
same,GI50,CCRF-CEM leukemia,0.727 µM
same,TGI,CCRF-CEM leukemia,> 100 µM
same,GI50,SF-539 CNS,0.753 µM
same,TGI,SF-539 CNS,4.46 µM
same,GI50,T-47D breast,2.65 µM
same,TGI,T-47D breast,48 µM
same,GI50,U251 CNS,0.543 µM
same,TGI,U251 CNS,21.1 µM
same,GI50,MOLT-4 leukemia,1.47 µM
same,TGI,MOLT-4 leukemia,32.8 µM
same,GI50,CAKI-1 renal,0.451 µM
same,TGI,CAKI-1 renal,20.2 µM
same,GI50,NCI-H23 lung,2.8 µM
same,TGI,NCI-H23 lung,> 100 µM
same,GI50,NCI-H460 lung,0.566 µM
same,TGI,NCI-H460 lung,12.6 µM
same,GI50,TK-10 renal,23.4 µM
same,TGI,TK-10 renal,> 100 µM
same,GI50,UACC-257 melanoma,17 µM
same,TGI,UACC-257 melanoma,47.7 µM
same,GI50,COLO 205 colon,0.941 µM
same,TGI,COLO 205 colon,5.49 µM
same,GI50,SR leukemia,0.36 µM
same,TGI,SR leukemia,13.5 µM
same,GI50,SK-OV-3 ovarian,6.7 µM
same,TGI,SK-OV-3 ovarian,> 100 µM
same,GI50,SF-295 CNS,0.461 µM
same,TGI,SF-295 CNS,12.4 µM
same,GI50,M14 melanoma,0.582 µM
same,TGI,M14 melanoma,10.6 µM
same,GI50,MDA-MB-231 breast,3.05 µM
same,TGI,MDA-MB-231 breast,15.2 µM
same,GI50,NCI-H522 lung,0.472 µM
same,TGI,NCI-H522 lung,18.9 µM
same,GI50,EKVX NSCLC,2.11 µM
same,TGI,EKVX NSCLC,> 100 µM
same,GI50,HS 578T breast,1.8 µM
same,TGI,HS 578T breast,27.3 µM
same,GI50,UO-31 renal,1.16 µM
same,TGI,UO-31 renal,13.7 µM
same,GI50,SK-MEL-5 melanoma,1.02 µM
same,TGI,SK-MEL-5 melanoma,11.9 µM
same,GI50,A549 NSCLC,1.33 µM
same,TGI,A549 NSCLC,> 100 µM

# Source: PubChem BioAssay (NCI)
